Converted amounts (≈) assume the structure as drawn. The source made the active and inactive calls. The calls are words filed in the database; no cut-off is given here.
Key:
Bacillus subtilis = assay: Antibacterial activity against Bacillus subtilis ATCC 6633 by broth microdilution method; format: functional
Staphylococcus aureus [1] = assay: Antibacterial activity against methicillin-[…] Staphylococcus aureus ATCC 33591 by broth microdilution method; format: functional
Staphylococcus aureus [2] = assay: Antibacterial activity against methicillin-[…] Staphylococcus aureus ATCC 29213 by broth microdilution method; format: functional
[3] = system: Staphylococcus epidermidis; assay: Antibacterial activity against biofilm positive Staphylococcus epidermidis ATCC 35984; format: functional
[4] = system: Staphylococcus epidermidis; assay: Antibacterial activity against Staphylococcus epidermidis by broth microdilution method; format: functional
Enterococcus faecalis [5] = assay: Antibacterial activity against vancomycin and teicoplanin-sensitive Enterococcus faecalis ATCC 29212 by broth microdilution method; format: functional
Enterococcus faecalis [6] = assay: Antibacterial activity against vancomycin-resistant and teicoplanin-sensitive Enterococcus faecalis ATCC 5129 expressing VanB gene by broth microdilution method; format: functional
Enterococcus faecalis [7] = assay: Antibacterial activity against vancomycin and teicoplanin-resistant Enterococcus faecalis 15376 expressing VanA gene by broth microdilution method; format: functional
Influenza A virus [8] = assay: Antiviral activity against influenza A virus H1N1 assessed as inhibition of viral induced cytopathic effect; format: functional, organism-based
Influenza A virus [9] = assay: Antiviral activity against influenza A virus H1N1 assessed as cell viability by cell based MTS assay; format: functional, organism-based
Influenza A virus [10] = assay: Antiviral activity against Influenza A virus H3N2 assessed as inhibition of viral induced cytopathic effect; format: functional, organism-based
Influenza A virus [11] = assay: Antiviral activity against Influenza A virus H3N2 assessed as cell viability by cell based MTS assay; format: functional, organism-based
Influenza B virus [12] = assay: Antiviral activity against influenza B virus assessed as inhibition of viral induced cytopathic effect; format: functional, organism-based
Influenza B virus [13] = assay: Antiviral activity against influenza B virus assessed as cell viability by cell based MTS assay; format: functional, organism-based
Platelet = assay: Inhibition of ristocetin-induced platelet aggregation at 0.1 mg/ml; format: functional, cell-based

| Structure (SMILES) | MBC (Bacillus subtilis) [µg/mL] | MIC (Bacillus subtilis) [µg/mL] | MBC (Staphylococcus aureus [1]) [µg/mL] | MIC (Staphylococcus aureus [1]) [µg/mL] | MBC (Staphylococcus aureus [2]) [µg/mL] | MIC (Staphylococcus aureus [2]) [µg/mL] | MBC [3] [µg/mL] | MIC [3] [µg/mL] | MBC [4] [µg/mL] | MIC [4] [µg/mL] | MBC (Enterococcus faecalis [5]) [µg/mL] | MIC (Enterococcus faecalis [5]) [µg/mL] | MBC (Enterococcus faecalis [6]) [µg/mL] | MIC (Enterococcus faecalis [6]) [µg/mL] | MBC (Enterococcus faecalis [7]) [µg/mL] | MIC (Enterococcus faecalis [7]) [µg/mL] | EC50 (Influenza A virus [8]) [µM] | EC50 (Influenza A virus [9]) [µM] | EC50 (Influenza A virus [10]) [µM] | EC50 (Influenza A virus [11]) [µM] | other results |
| --- | --- | --- | --- | --- | --- | --- | --- | --- | --- | --- | --- | --- | --- | --- | --- | --- | --- | --- | --- | --- | --- |
| COC(=O)[C@@H]1NC(=O)[C@H]2NC(=O)[C@H](NC(=O)[C@@H]3NC(=O)[C@H]4NC(=O)[C@H](NC(=O)[C@H](n5cc(CO[C@H]6O[C@H](CO)[C@@H](O[C@H]7O[C@H](CO)[C@@H](O)[C@H](O)[C@H]7O)[C@H](O)[C@H]6O)nn5)c5ccc(O)c(c5)Oc5cc4cc(O)c5C)[C@H](O)c4ccc(cc4)Oc4cc3cc(c4O)Oc3ccc(cc3)[C@H]2O)c2ccc(O)c(c2)-c2c(O)cc(O)cc21 | 4 (≈ 2.53 µM) | 4 (≈ 2.53 µM) | 256 (≈ 162 µM) | 2 (≈ 1.27 µM) | 256 (≈ 162 µM) | 4 (≈ 2.53 µM) | 8 (≈ 5.06 µM) | 4 (≈ 2.53 µM) | 2 (≈ 1.27 µM) | 1 (≈ 0.633 µM) | 256 (≈ 162 µM) | 4 (≈ 2.53 µM) | 256 (≈ 162 µM) | 32 (≈ 20.2 µM) | 256 (≈ 162 µM) | 8 (≈ 5.06 µM) | 16 | 20 | > 100 | > 100 | EC50 (Influenza B virus [12]): 52 µM; EC50 (Influenza B virus [13]): 61 µM; inhibition (Platelet): Active |
| COC(=O)[C@@H]1NC(=O)[C@H]2NC(=O)[C@H](NC(=O)[C@@H]3NC(=O)[C@H]4NC(=O)[C@H](NC(=O)[C@H](n5cc(CO[C@H]6O[C@H](CO)[C@@H](O)[C@H](O)[C@H]6O)nn5)c5ccc(O)c(c5)Oc5cc4cc(O)c5C)[C@H](O)c4ccc(cc4)Oc4cc3cc(c4O)Oc3ccc(cc3)[C@H]2O)c2ccc(O)c(c2)-c2c(O)cc(O)cc21 | 8 (≈ 5.64 µM) | 2 (≈ 1.41 µM) | 128 (≈ 90.2 µM) | 2 (≈ 1.41 µM) | 256 (≈ 180 µM) | 2 (≈ 1.41 µM) | 4 (≈ 2.82 µM) | 2 (≈ 1.41 µM) | 4 (≈ 2.82 µM) | 4 (≈ 2.82 µM) | 256 (≈ 180 µM) | 4 (≈ 2.82 µM) | 256 (≈ 180 µM) | 8 (≈ 5.64 µM) | 256 (≈ 180 µM) | 4 (≈ 2.82 µM) | 14 | 16 | ≥ 45 | ≥ 30 | EC50 (Influenza B virus [12]): 32 µM; EC50 (Influenza B virus [13]): 33 µM; inhibition (Platelet): Active |
| COC(=O)[C@@H]1NC(=O)[C@H]2NC(=O)[C@H](NC(=O)[C@@H]3NC(=O)[C@H]4NC(=O)[C@H](NC(=O)[C@H](n5cc(CO[C@H]6O[C@H](CO)[C@@H](O)[C@H](O)[C@H]6NC(C)=O)nn5)c5ccc(O)c(c5)Oc5cc4cc(O)c5C)[C@H](O)c4ccc(cc4)Oc4cc3cc(c4O)Oc3ccc(cc3)[C@H]2O)c2ccc(O)c(c2)-c2c(O)cc(O)cc21 | 8 (≈ 5.48 µM) | 4 (≈ 2.74 µM) | 4 (≈ 2.74 µM) | 4 (≈ 2.74 µM) | 2 (≈ 1.37 µM) | 2 (≈ 1.37 µM) | 2 (≈ 1.37 µM) | 2 (≈ 1.37 µM) | 4 (≈ 2.74 µM) | 2 (≈ 1.37 µM) | 256 (≈ 175 µM) | 8 (≈ 5.48 µM) | 256 (≈ 175 µM) | 16 (≈ 11 µM) | 256 (≈ 175 µM) | 8 (≈ 5.48 µM) | 9 | 8.7 | ≥ 45 | ≥ 72 | EC50 (Influenza B virus [12]): 32 µM; EC50 (Influenza B virus [13]): 40 µM; inhibition (Platelet): inactive |

Source: ChEMBL document CHEMBL1158551, “Click reaction synthesis of carbohydrate derivatives from ristocetin aglycon with antibacterial and antiviral activity” (Bioorg Med Chem Lett, 2010)
